Test results: ChEMBL document CHEMBL5236589, “Design and Structural Optimization of Orally Bioavailable SOS1 Inhibitors for the Treatment of KRAS-Driven Carcinoma” (J Med Chem, 2022)
pIC50: −log10 of the molar value.

Experiments:
[1] = Inhibition of SOS1/KRAS G13D mutant protein-protein interaction in human DLD-1 cells assessed as ERK1/2 phosphorylation measured after 1 hr by homogeneous time-resolved fluorescence (HTRF) method; assay type: cell-based; conditions: DLD-1, 1 h
[2] = Cmax in ICR mouse at 20 mg/kg, po by LC-MS/MS analysis; assay type: ADME, organism-based; design: dose 20 mg/kg, route po; conditions: in vivo
[3] = MRT in ICR mouse at 20 mg/kg, po by LC-MS/MS analysis; assay type: ADME, organism-based; conditions: in vivo
[4] = Half life in ICR mouse at 20 mg/kg, po by LC-MS/MS analysis; assay type: ADME, organism-based; conditions: in vivo; for t1/2: po, 20 mg/kg; for half-life: ICR
[5] = Tmax in ICR mouse at 20 mg/kg, po by LC-MS/MS analysis; assay type: ADME, organism-based; conditions: in vivo
[6] = AUC in ICR mouse at 20 mg/kg, po by LC-MS/MS analysis; assay type: ADME, organism-based; design: dose 20 mg/kg, route po; conditions: in vivo
[7] = Elimination rate constant in ICR mouse at 20 mg/kg, po by LC-MS/MS analysis; assay type: ADME, organism-based; conditions: in vivo; for Kel: po, 20 mg/kg; for k el: ICR
SOS1-KRAS = SOS1-KRAS (Homo sapiens, UniProt Q07889); assay: Inhibition of human recombinant SOS1 (residue 564-1049)/KRAS G12C mutant protein-protein interaction at incubated for 25 degC for 60 mins by homogeneous time-resolved fluorescence (HTRF) method
SOS1-KRAS, sequence (Q07889 whole entry, looked up, stated change not applied): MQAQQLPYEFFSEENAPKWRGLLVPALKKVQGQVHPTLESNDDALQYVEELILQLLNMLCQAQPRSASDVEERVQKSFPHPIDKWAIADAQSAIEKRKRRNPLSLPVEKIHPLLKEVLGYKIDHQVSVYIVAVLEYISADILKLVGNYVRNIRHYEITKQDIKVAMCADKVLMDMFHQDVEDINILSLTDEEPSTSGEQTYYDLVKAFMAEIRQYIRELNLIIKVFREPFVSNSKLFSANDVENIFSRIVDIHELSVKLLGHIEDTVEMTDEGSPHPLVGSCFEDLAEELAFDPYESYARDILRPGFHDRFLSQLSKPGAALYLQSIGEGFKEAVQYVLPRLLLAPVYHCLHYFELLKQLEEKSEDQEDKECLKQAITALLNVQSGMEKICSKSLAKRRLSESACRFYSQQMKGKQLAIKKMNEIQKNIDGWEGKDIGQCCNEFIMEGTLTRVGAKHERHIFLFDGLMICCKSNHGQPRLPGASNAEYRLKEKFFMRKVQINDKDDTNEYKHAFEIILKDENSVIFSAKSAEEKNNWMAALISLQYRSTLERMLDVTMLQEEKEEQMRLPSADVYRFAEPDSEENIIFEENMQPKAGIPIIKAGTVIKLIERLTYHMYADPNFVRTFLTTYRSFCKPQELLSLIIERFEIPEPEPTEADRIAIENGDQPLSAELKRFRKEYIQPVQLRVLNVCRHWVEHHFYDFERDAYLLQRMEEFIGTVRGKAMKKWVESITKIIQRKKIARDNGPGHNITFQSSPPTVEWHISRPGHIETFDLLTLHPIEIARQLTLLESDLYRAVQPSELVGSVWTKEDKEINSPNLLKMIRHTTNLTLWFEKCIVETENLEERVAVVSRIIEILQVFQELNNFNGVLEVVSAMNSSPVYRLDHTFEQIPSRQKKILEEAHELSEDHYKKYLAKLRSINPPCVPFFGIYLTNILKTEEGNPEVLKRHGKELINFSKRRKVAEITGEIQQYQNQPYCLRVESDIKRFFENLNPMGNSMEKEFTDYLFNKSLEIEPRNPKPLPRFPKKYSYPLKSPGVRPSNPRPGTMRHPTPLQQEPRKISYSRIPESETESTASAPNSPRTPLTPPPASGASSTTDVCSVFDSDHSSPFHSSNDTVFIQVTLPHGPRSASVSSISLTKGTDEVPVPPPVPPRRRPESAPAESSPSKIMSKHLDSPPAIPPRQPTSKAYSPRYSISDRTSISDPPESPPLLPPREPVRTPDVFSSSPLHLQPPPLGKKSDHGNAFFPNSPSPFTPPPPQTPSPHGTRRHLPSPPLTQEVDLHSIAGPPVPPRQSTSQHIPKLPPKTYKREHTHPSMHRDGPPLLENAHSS

Cc1nc(N[C@H](C)c2cccc(C(F)F)c2F)c2cc3c(cc2n1)OC[C@H]1CN(C(=O)C2C(C)(C)C2(C)C)CCN31
pIC50 [1]: 8.05

CNC(=O)N1CCN2c3cc4c(N[C@H](C)c5cccc(C(F)F)c5F)nc(C)nc4cc3OC[C@H]2C1
Cmax [2]: 751 ng/mL
pIC50 [1]: 7.82
MRT [3]: 5.62 h
t1/2 [4]: 14.5 h
Tmax [5]: 8 h
AUC [6]: 2830 ng·h/mL
Kel [7]: 0.26 h⁻¹

Cc1nc(N[C@H](C)c2cccc(C(F)F)c2F)c2cc3c(cc2n1)OC[C@H]1CN(C(=O)N2CCN(C)CC2)CCN31
pIC50 [1]: 7.00

Cc1nc(N[C@H](C)c2cccc(C(F)F)c2F)c2cc3c(cc2n1)OC[C@H]1CN(C(=O)C2CC2)CCN31
pIC50 [1]: 6.44

Cc1nc(N[C@H](C)c2cc(N)cc(C(F)(F)F)c2)c2cc3c(cc2n1)OC[C@H]1COCCN31
pIC50 [1]: 7.42
pIC50 (SOS1-KRAS): 8.22

Cc1nc(N[C@H](C)c2cccc(C(F)F)c2F)c2cc3c(cc2n1)OC[C@H]1CN(C(=O)N(C)C)CCN31
Cmax [2]: 621 ng/mL
pIC50 [1]: 8.54
MRT [3]: 4.2 h
half-life [4]: 738 min
Tmax [5]: 3 h
AUC [6]: 3980 ng·h/mL
k el [7]: 2.5e-05 s⁻¹

CCNC(=O)N1CCN2c3cc4c(N[C@H](C)c5cccc(C(F)F)c5F)nc(C)nc4cc3OC[C@H]2C1
pIC50 [1]: 7.49

Cc1nc(N[C@H](C)c2cccc(C(F)F)c2F)c2cc3c(cc2n1)OC[C@H]1CN(S(C)(=O)=O)CCN31
pIC50 [1]: 7.10

Cc1nc(N[C@H](C)c2cccc(C(F)F)c2F)c2cc3c(cc2n1)OC[C@H]1CN(C(=O)C2CCO2)CCN31 (some centres undefined)
Cmax [2]: 97.1 ng/mL
pIC50 [1]: 7.80
MRT [3]: 4.55 h
t1/2 [4]: 14.3 h
Tmax [5]: 5.67 h
AUC [6]: 534 ng·h/mL
Kel [7]: 0.13 h⁻¹

Cc1nc(N[C@H](C)c2cccc(C(F)F)c2F)c2cc3c(cc2n1)OC[C@H]1CN(C)CCN31
pIC50 [1]: 7.07

Cc1nc(N[C@H](C)c2cccc(C(F)F)c2F)c2cc3c(cc2n1)OC[C@H]1CN(C(=O)C2CC2(F)F)CCN31 (some centres undefined)
pIC50 [1]: 7.59

Cc1nc(N[C@H](C)c2cc(N)cc(C(F)(F)F)c2)c2cc3c(cc2n1)OCCO3
pIC50 [1]: 6.16
pIC50 (SOS1-KRAS): 6.04

Cc1nc(N[C@H](C)c2cccc(C(F)F)c2F)c2cc3c(cc2n1)OC[C@H]1CN(C(=O)[C@@H]2C[C@@H]2F)CCN31
pIC50 [1]: 7.66

Cc1nc(N[C@H](C)c2cccc(C(F)F)c2F)c2cc3c(cc2n1)OC[C@H]1CN(C(C)C)CCN31
pIC50 [1]: 6.77

Cc1nc(N[C@H](C)c2cccc(C(F)F)c2F)c2cc3c(cc2n1)OC[C@H]1CN(C(=O)C2(C#N)CC2)CCN31
Cmax [2]: 600 ng/mL
pIC50 [1]: 7.85
MRT [3]: 4.43 h
half-life [4]: 232 min
Tmax [5]: 1.33 h
AUC [6]: 4460 ng·h/mL
k el [7]: 5e-05 s⁻¹

Cc1nc(N[C@H](C)c2cccc(C(F)F)c2F)c2cc3c(cc2n1)OC[C@H]1CN(C(=O)C2(C)CC2)CCN31
pIC50 [1]: < 6.00

Cc1nc(N[C@H](C)c2cccc(C(F)F)c2F)c2cc3c(cc2n1)OC[C@H]1CN(C(=O)c2ccnn2C)CCN31
pIC50 [1]: 6.16

COCCC(=O)N1CCN2c3cc4c(N[C@H](C)c5cccc(C(F)F)c5F)nc(C)nc4cc3OC[C@H]2C1
Cmax [2]: 674 ng/mL
pIC50 [1]: 8.02
MRT [3]: 3.45 h
half-life [4]: 231 min
Tmax [5]: 2.92 h
AUC [6]: 3340 ng·h/mL
k el [7]: 5e-05 s⁻¹

Cc1nc(N[C@H](C)c2cccc(C(F)F)c2F)c2cc3c(cc2n1)OC[C@H]1CN(C(=O)C2COC2)CCN31
Cmax [2]: 260 ng/mL
pIC50 [1]: 7.60
MRT [3]: 4.58 h
half-life [4]: 224 min
Tmax [5]: 3 h
AUC [6]: 2010 ng·h/mL
k el [7]: 5e-05 s⁻¹

CC(=O)N1CCN2c3cc4c(N[C@H](C)c5cc(N)cc(C(F)(F)F)c5)nc(C)nc4cc3OC[C@@H]2C1
pIC50 [1]: 7.32
pIC50 (SOS1-KRAS): 7.89

Cc1nc(N[C@H](C)c2cccc(C(F)F)c2F)c2cc3c(cc2n1)OC[C@H]1CN(C(=O)C2(F)CC2)CCN31
Cmax [2]: 582 ng/mL
pIC50 [1]: 8.77
MRT [3]: 2.59 h
half-life [4]: 140 min
Tmax [5]: 1.5 h
AUC [6]: 2100 ng·h/mL
k el [7]: 8.33e-05 s⁻¹

Cc1nc(N[C@H](C)c2cccc(C(F)F)c2F)c2cc3c(cc2n1)OC[C@H]1CN(C(=O)[C@@H]2CCOC2)CCN31
Cmax [2]: 47 ng/mL
pIC50 [1]: 7.68
MRT [3]: 9.65 h
half-life [4]: 1080 min
Tmax [5]: 8 h
AUC [6]: 780 ng·h/mL
k el [7]: 8.33e-06 s⁻¹

Cc1nc(N[C@H](C)c2cccc(C(F)F)c2F)c2cc3c(cc2n1)OC[C@H]1CN(C2COC2)CCN31
pIC50 [1]: 7.02
